{"source": "patent US20070149483A1", "about": "“Methods and compounds for modulating triglyceride and vldl secretion” (priority 2003, published 2007)", "key": {"[1]": {"tested_on": "McA-RH7777 cells expressing human apoB100", "assay": "Pulse-chase of [35S]apoB100 with rate flotation of conditioned medium and microsomal lumen", "format": "cell-based, rat", "settings": "30 min pulse, end of 1-h chase", "protocol": "Cell Culture and Fatty Acid Treatments—Transfected McA-RH7777 cells stably expressing human apoB100 (McLeod et al., 1994, J. Biol. Chem. 269, 2852-2862) were cultured in Dulbecco's modified Eagle's medium (DMEM) containing 10% fetal bovine serum (FBS), 10% horse serum and 200 μg/ml G418. Routinely, the cells were incubated with 0.4 mM fatty acids for 16-18 h in the presence of 20% FBS prior to experiments."}, "[2]": {"tested_on": "McA-RH7777 cells stably expressing human apoB100", "assay": "Transmission electron microscopy morphometry of lipid/lipoprotein particles in Golgi and GAV", "format": "cell-based, rat", "settings": "for relative occurrence of particle type in the GAV: n=221; for relative occurrence of particle type in trans-Golgi saccules 4-6+TGN/secretory vesicles: n=284", "protocol": "The samples were processed for transmission electron microscopy as previously described (Tran et al., 2002). Single and serial thin sections (silver-gold interference colors) were visualized in a Hitachi H-7000 transmission electron microscope, and captured at a range of negative magnifications (8,000-120,000 times). Panoramic tiling was used to capture large fields. The 3D model was prepared from Golgi fields from 7 consecutive serial images (positive magnification=70,000 times), by the method previously described (Thorne-Tjomsland et al., 1998, Anat. Rec. 250, 381-396), with the following modifications. The serial fields were scanned into Adobe Photoshop 5.5 of an Imac 700 MHz G4 computer. Alignment of consecutive sections by fiducial markers was carried out prior to object-contouring and -separation. Concatenation and volume rendering were done in Synu on an SGI-OS 2, and image capture was with Photoshop on a Macintosh platform. The diameter of electron-dense particles, which represent a combination of lipoprotein particles and lipid droplets, were measured in 40 randomly selected Golgi regions from EPA-treated cells. Negative magnification was 40,000 times and positives were further magnified three times. Measurements were from positives, using a digital caliper [technical specifications in required range (0-150 mm on positive): max resolution=0.01 mm; accuracy=0.02 mm; repeatability=0.01 mm]. The precision in our system was tested by measuring the diameters of each of two electron-dense particles (20 nm and 40 nm diameter) 40 times; SD for the average converted measurements was <1 nm. Criteria for selecting Golgi, establishing cis-trans polarity, and measuring lipid/lipoprotein particles were as described (Tran et al., 2002). Lipid/lipoprotein particles were classified as membrane-associated if directly apposed to the lumenal Golgi leaflet or with a membrane diverging from this, otherwise as lumenal."}, "[3]": {"tested_on": "McA-RH7777 cells stably expressing human apoB100", "assay": "Pulse-chase with subcellular fractionation: membrane-associated apoB100 trafficking", "format": "cell-based, rat", "settings": "20 min pulse", "protocol": "The cells were then incubated with chase medium for 15, 30 and 45 min. At the end of each chase time, the medium was collected and subjected to cumulative rate flotation centrifugation (Wang et al., 1999) to resolve apoB100-VLDL1 (Sf>100) and apoB100-VLDL2 (Sf 20-100) from other lipoproteins (i.e. IDL, LDL and HDL). The ^35S-apoB100 in each fraction was recovered by immunoprecipitation. Also, at the end of each chase time, the radiolabeled cells were harvested in 2 ml of ice-cold homogenization buffer (10 mM Tris-HCl, pH 7.4, 250 mM sucrose, 5 mM EDTA, and serine/cysteine protease inhibitor mixture), mixed with two 100-mm dishes of unlabeled cells, homogenized by passing ten times through a ball-bearing homogenizer, and subjected to subcellular fractionation and carbonate-treatment as described below. […]\nAnalysis of ApoB100 Associated with Membranes and Lumenal Contents of Microsomes—Lumenal contents were separated from membranes by sodium carbonate treatment followed by centrifugation (Tran et al., 2002). The ^35S-labelled apoB100 proteins associated with the membrane and lumen were recovered by immunoprecipitation and analyzed by SDS-PAGE/fluorography as previously described (Tran et al., 2002). […]"}, "[4]": {"tested_on": "McA-RH7777 cells stably expressing human apoB100", "assay": "Immunofluorescent localization of apoB and Map1LC3", "format": "cell-based, rat", "settings": "0.4 mM, 4 h, in comparison to controls", "method": "Cells were permeabilized with 1% Triton X-100 in blocking buffer (10% FBS in PBS) for 30 min and probed with primary antibodies, i.e., monoclonal antibody 1D1 (1:1000) for human apoB and polyclonal antibody against rat Map1LC3 (1:200) for 1 h. Cells were then incubated with a mixture of secondary antibodies (1:200), i.e., of goat anti-mouse IgG conjugated with Alexa Fluor™488 (green) and goat anti-rabbit IgG conjugated with Alexa Fluor™594 (red) for 1 h. The coverslips were mounted onto glass slides using SlowFade AntiFade kits (Molecular Probes) and the images were captured by an MRC-1024 laser scanning confocal imaging system. […] The secondary antibody for apoB was conjugated with Alexa Fluor™488 (green), and that for Map1LC3 was conjugated with Alexa Fluor™594 (red)."}, "[5]": {"tested_on": "McA-RH7777 cells stably expressing human apoB100", "settings": "Tran et al., 2002, cited from earlier work"}, "[6]": {"tested_on": "McA-RH777 cells", "settings": "oleate-treated cells; cited from earlier work"}}, "data": [{"compound": "CC/C=C\\C/C=C\\C/C=C\\C/C=C\\C/C=C\\CCCC(=O)O", "note": "[EPA, eicosapentaenoic acid]", "values": [{"measurement": "increase of [^35S]-apoB100 in fractions of high density (IDL and LDL) in the microsomal lumen", "setting": "[1]; vs oleate", "value": "six-fold"}, {"measurement": "decrease of [^35S]-apoB100 in VLDL (VLDL1 and VLDL2) in the media, as compared to oleate-treatment", "setting": "[1]; 16 h pretreatment", "value": 50, "unit": "%"}, {"measurement": "average size of Type I particles in the cis-most Golgi saccule", "setting": "[2]; EPA-treated cells", "value": 100, "unit": "nm"}, {"measurement": "average size of Type V particles", "setting": "[2]; EPA-treated cells", "value": 54.5, "unit": "nm"}, {"measurement": "sizes of Type V particles in the Golgi", "setting": "[2]; EPA-treated cells", "value": "25-75 nm"}, {"measurement": "Percent membrane association of particles", "setting": "[2]; Type I, GAV", "value": 33, "unit": "%"}, {"measurement": "Percent membrane association of particles", "setting": "[2]; Type I, Golgi saccule 1", "value": 100, "unit": "%"}, {"measurement": "Percent membrane association of particles", "setting": "[2]; Type I, Golgi saccule 2", "value": 84, "unit": "%"}, {"measurement": "Percent membrane association of particles", "setting": "[2]; Type I, Golgi saccule 3", "value": 80, "unit": "%"}, {"measurement": "Percent membrane association of particles", "setting": "[2]; Type I, Golgi saccules 4-6", "value": 73, "unit": "%"}, {"measurement": "Percent membrane association of particles", "setting": "[2]; Type I, TGN and secretory", "value": 56, "unit": "%"}, {"measurement": "relative occurrence of particle type in the GAV", "setting": "[2]; Type I", "value": 12, "unit": "%"}, {"measurement": "relative occurrence of particle type in trans-Golgi saccules 4-6+TGN/secretory vesicles", "setting": "[2]; Type I", "value": 12, "unit": "%"}, {"measurement": "Percent membrane association of particles", "setting": "[2]; Type II, GAV", "value": 25, "unit": "%"}, {"measurement": "Percent membrane association of particles", "setting": "[2]; Type II, Golgi saccule 1", "value": 100, "unit": "%"}, {"measurement": "Percent membrane association of particles", "setting": "[2]; Type II, Golgi saccule 2", "value": 83, "unit": "%"}, {"measurement": "Percent membrane association of particles", "setting": "[2]; Type II, Golgi saccule 3", "value": 75, "unit": "%"}, {"measurement": "relative occurrence of particle type in the GAV", "setting": "[2]; Type II", "value": 2, "unit": "%"}, {"measurement": "relative occurrence of particle type in trans-Golgi saccules 4-6+TGN/secretory vesicles", "setting": "[2]; Type II", "value": 4, "unit": "%"}, {"measurement": "Percent membrane association of particles", "setting": "[2]; Type III, GAV", "value": 46, "unit": "%"}, {"measurement": "Percent membrane association of particles", "setting": "[2]; Type III, Golgi saccule 1", "value": 100, "unit": "%"}, {"measurement": "Percent membrane association of particles", "setting": "[2]; Type III, Golgi saccule 2", "value": 83, "unit": "%"}, {"measurement": "Percent membrane association of particles", "setting": "[2]; Type III, Golgi saccule 3", "value": 83, "unit": "%"}, {"measurement": "Percent membrane association of particles", "setting": "[2]; Type III, Golgi saccules 4-6", "value": 82, "unit": "%"}, {"measurement": "Percent membrane association of particles", "setting": "[2]; Type III, TGN and secretory", "value": 73, "unit": "%"}, {"measurement": "relative occurrence of particle type in the GAV", "setting": "[2]; Type III", "value": 11, "unit": "%"}, {"measurement": "relative occurrence of particle type in trans-Golgi saccules 4-6+TGN/secretory vesicles", "setting": "[2]; Type III", "value": 13, "unit": "%"}, {"measurement": "Percent membrane association of particles", "setting": "[2]; Type IV, GAV", "value": 45, "unit": "%"}, {"measurement": "Percent membrane association of particles", "setting": "[2]; Type IV, Golgi saccules 4-6", "value": 50, "unit": "%"}, {"measurement": "Percent membrane association of particles", "setting": "[2]; Type IV, TGN and secretory", "value": 20, "unit": "%"}, {"measurement": "Percent membrane association of particles", "setting": "[2]; Type IV, combined Golgi saccules 1-3", "value": 67, "unit": "%"}, {"measurement": "relative occurrence of particle type in the GAV", "setting": "[2]; Type IV", "value": 5, "unit": "%"}, {"measurement": "relative occurrence of particle type in trans-Golgi saccules 4-6+TGN/secretory vesicles", "setting": "[2]; Type IV", "value": 5, "unit": "%"}, {"measurement": "Percent membrane association of particles", "setting": "[2]; Type V, GAV", "value": 42, "unit": "%"}, {"measurement": "Percent membrane association of particles", "setting": "[2]; Type V, Golgi saccule 1", "value": 96, "unit": "%"}, {"measurement": "Percent membrane association of particles", "setting": "[2]; Type V, Golgi saccule 2", "value": 83, "unit": "%"}, {"measurement": "Percent membrane association of particles", "setting": "[2]; Type V, Golgi saccule 3", "value": 66, "unit": "%"}, {"measurement": "Percent membrane association of particles", "setting": "[2]; Type V, Golgi saccules 4-6", "value": 64, "unit": "%"}, {"measurement": "Percent membrane association of particles", "setting": "[2]; Type V, TGN and secretory", "value": 66, "unit": "%"}, {"measurement": "relative occurrence of particle type in the GAV", "setting": "[2]; Type V", "value": 70, "unit": "%"}, {"measurement": "relative occurrence of particle type in trans-Golgi saccules 4-6+TGN/secretory vesicles", "setting": "[2]; Type V", "value": 66, "unit": "%"}]}, {"compound": "CCCCCCCC/C=C\\CCCCCCCC(=O)O", "note": "[Oleate, oleic acid]", "values": [{"measurement": "rate at which the membrane-associated [^35S]-apoB100 exited the ER", "setting": "[3]; chase 0, 15, 30 and 45 min", "value": "−0.59±0.17 % of total/min"}, {"measurement": "rate at which the membrane-associated [^35S]-apoB100 appeared in the distal Golgi", "setting": "[3]; chase 0-45 min", "value": "0.39±0.11 % of total/min"}, {"measurement": "autophagy (penetration of Map1LC3 staining into the apoB100-rich perinuclear area, partial co-localization with apoB100)", "setting": "[4]", "value": "induced autophagy"}, {"measurement": "size of lipoprotein particles detected in oleate-treated cells", "setting": "[5]", "value": 40, "unit": "nm"}, {"measurement": "average diameters of lipoproteins in Golgi saccules 1-6", "setting": "[5]; oleate-treated McArdle cells", "value": "40±17", "unit": "nm"}, {"measurement": "share of total secreted TG carried by VLDL particles", "setting": "[6]", "value": "> 80", "unit": "%"}, {"measurement": "share of total secreted apoB100 carried by VLDL particles", "setting": "[6]", "value": "< 10", "unit": "%"}]}]}
